Biological target: Rab7 GTPase wildtype (dog), GST fusion
Test: Rab7 wildtype GTP binding inhibitors, SAR follow-up, biochemical, dog Rab7, bead multiplex flow cytometry, Bodipy-FL-GTP, pyrazoline series (AID 2041)
Conditions: Bead-based flow cytometry, Ki calculated from EC50

## COc1ccccc1N1N=C(c2ccccc2)CC1c1ccccc1 (stereo not drawn)
  Ki: 660 nM

## COc1ccc(C2CC(c3cccc(Cl)c3)=NN2c2ccc(S(N)(=O)=O)cc2)cc1 (stereo not drawn)
  Ki: 10 nM

## COc1ccc(C2CC(c3ccc(F)cc3)=NN2c2cc(Cl)ccc2Cl)cc1 (stereo not drawn)
  Ki: 730 nM

## COc1ccc(C2CC(c3ccc(F)cc3)=NN2c2cccc(F)c2)cc1OC (stereo not drawn)
  Ki: 1470 nM

## Clc1ccc(N2N=C(c3ccccc3)CC2c2ccccc2)cc1 (stereo not drawn)
  Ki: 430 nM

## O=S(=O)(c1ccc(N2N=C(c3ccccc3)CC2c2ccccc2)cc1)C(F)F (stereo not drawn)
  Ki: 30 nM

## COc1ccc(C2=NN(c3cccc(F)c3)C(c3ccc(OC)cc3)C2)cc1 (stereo not drawn)
  Ki: 10 nM

## COc1ccc(C2=NN(c3ccccc3)C(c3ccc(Cl)cc3)C2)cc1 (stereo not drawn)
  Ki: 40 nM

Source: PubChem BioAssay AID2041 (NMMLSC, 2009)
